# Laboratory results published in article PMC5249144, “T Cell Subset and Stimulation Strength-Dependent Modulation of T Cell Activation by Kv1.3 Blockers” (PLoS ONE, 2017).
# Where two headings read alike, the source gives them in different places.
# How the values were obtained:
# human CD4 T cells [1] = experiment: Calcium flux in CD4 T cells, thapsigargin; assay type: cell-based; details: BTP2 1μM, thapsigargin 1μM, monitored for 10 minutes
# Description: (§1) T cells were loaded with 3μM each of Fluo4 and Fura red (Molecular Probes, Invitrogen) for 45 minutes in the dark at 37°C in cell loading medium (DMEM medium with 10mM HEPES and 10% fetal calf serum) in the presence of 0.01% pluronic acid (Molecular Probes). Dye-loaded cells were rinsed twice with loading medium, incubated with 10μg/ml mouse anti-CD3 (BD Biosciences) and 2.5μg/ml mouse anti-CD28 (BD Biosciences) for 30 minutes at room temperature, and then rinsed again with loading medium to be ready for calcium flux studies. Cells were acquired with FACS LSRII and cell activation was initiated by addition of goat anti-mouse antibody (Jackson ImmunoResearch) to final 10μg/ml. CD4 T cells were also stimulated with 1μM thapsigargin. Kinetics of calcium flux in activated cells were monitored by reading the calcium dependent Fluo4 emission signals at 530nm compared to non-specific Fura red signals at 685nm. Calcium flux was calculated as ratio of Fluo4 to Fura red emission signals.
# human CD4 T cell subsets = assay type: cell-based
# Text: (§2) Human PBMC were purified from donor blood by Ficoll-Paque (GE Healthcare) density centrifugation. CD4 or CD8 T cells were purified from human PBMC by negative selection using human CD4 or CD8 T cell isolation kit (Miltenyi Biotec) respectively. Naïve or memory CD4 T cells were isolated from CD4 T cells by negative selection using human naïve or memory CD4 T cell isolation kit (Miltenyi Biotec) respectively. Central and effector memory CD4 T cells were separated from memory CD4 T cells using biotinylated anti-CCR7 (BD Biosciences) and streptavidin coated magnetic beads (Miltenyie Biotec). Cells after treatment with antibodies and magnetic beads were purified with autoMACS (Miltenyi Biotec).
# (§3) T cells were cultured in 96-well plates (Thermo Scientific) with 200μl medium/well. […]
# (§4) Proliferation of T cells was measured by overnight pulsing with 1μCi/well of ^3H-thymidine (Perkin Elmer). […] Filter plates were soaked with scintillant (Perkin Elmer) and radioactivity was counted using a Topcount (Packard).
# In order to further understand the activity profile of Kv1.3 blockers on T cells, we compared the effects of Kv1.3 blockers on primary naïve, central memory and effector memory CD4 T cells. […] Purified T cells were activated with anti-CD3 in the presence of mitomycin C treated PBMC and the effects of Kv1.3 blockers on T cell proliferation were monitored and compared to cyclosporine A and BTP2.
# [2] = system: thapsigargin stimulated human blood; experiment: Thapsigargin stimulated whole blood IL-2 production; assay type: cell-based; details: whole blood diluted with equal volume IMDM, 20 hours
# Description: Heparinized human blood was diluted with an equal volume of IMDM medium (Life Technologies) supplemented with 2% normal human A/B serum and plated at 200μl/well in 96-well plates for thapsigargin (Alomone) stimulation. CD4 T cells were plated at 5 x 10^5 cells/well in 96-well plates with 200μl medium/well. Blood or T cell samples were pre-treated with blockers or inhibitors for 30 minutes prior to stimulation with thapsigargin at 10μM or other concentrations as indicated for 20 hours. Cytokines in culture supernatants were measured as described in cytokine detection section.
# (§5) Cytokines in supernatants collected from blood or T cell cultures were measured with ELISA or electrochemiluminescent assays. IL-2 was measured by ELISA using the human IL-2 Quantikine Kit (R&D Systems). Other cytokines were detected using multiplex human cytokine electro-chemiluminescent kit (Meso Scale Discovery).
# human CD4 T cells [3] = experiment: Calcium flux in CD4 T cells, anti-CD3/CD28; assay type: cell-based; details: BTP2 1μM
# Description: as §1
# Kv1.3 = details: ref [5], [20]–[23]; cited from earlier work
# [4] = system: PBMC from allergic rhinitis patients; assay type: cell-based, human
# Description: T cells were cultured in 96-well plates (Thermo Scientific) with 200μl medium/well. Culture medium was RPMI-1640 medium supplemented with 2% human A/B serum (Valley Biomedical Prod & Srv Inc.), 2 mM glutamine, 1mM sodium pyruvate, 10mM HEPES, 1mM MEM nonessential amino acid solution, and 100 U/ml each of penicillin G and streptomycin (all culture reagents from Life Technologies except for human serum). T cells were pre-treated with Kv1.3 blockers and other inhibitors for 30 minutes before stimulation. All assays were conducted with samples in duplicates or triplicates.
# For T cell pan-activation with beads coated with anti-CD3 and anti-CD28 (eBioscience), T cells at 2 x 10^5 cells/well in 96-well flat-bottom plates were stimulated overnight with anti-CD3 and anti-CD28 coated beads (Miltenyi Biotec) at 2:1 bead/cell ratio or as indicated. For T cell pan-activation with anti-CD3, T cells at 5 x 10^4 cells/well in 96-well U-bottom plates were stimulated for 2 days with 1ng/ml of anti-CD3 in the presence of mitomycin C treated autologous PBMC at 1:1 T cell/PBMC ratio. […]
# as §4
# [5] = system: human CD4 and CD8 T cells; assay type: cell-based
# Text: as §2, §3, §4, §5
Compound,"reduction of calcium flux, in words (human CD4 T cells [1])","inhibition of proliferation of T cell subsets, in words (human CD4 T cell subsets; maximal efficacious concentrations, naïve, Tcm, Tem CD4 T cells, anti-CD3/PBMC)","inhibition of IL-2 release from thapsigargin stimulated whole blood, in words [2]","reduction of calcium flux, in words (human CD4 T cells [3]; anti-CD3/CD28, monitored for 10 minutes)","calcium flux by T cell population, in words (human CD4 T cells [3]; ShK 1nM, activated CD4 T cells, Fig 4C (anti-CD3/CD28 or thapsigargin))","Kv1.3 block, in words (Kv1.3)","ragweed proliferative response, in words [4]",block of T cell activation [5] [%],"inhibition of T cell activation, in words [5]","inhibition of proliferation of T cell subsets, in words (human CD4 T cell subsets)"
Cc1nnsc1C(=O)Nc1ccc(-n2nc(C(F)(F)F)cc2C(F)(F)F)cc1 [BTP2],significantly reduced the calcium flux levels,complete inhibition,fully efficacious,significantly reduced the calcium flux levels,reduced calcium flux in all activated T cells,,,,,
CC[C@H](C)[C@@H]1NC(=O)[C@@H]2CSSC[C@@H]3NC(=O)[C@H](CCCCN)NC(=O)CNC(=O)[C@H](CC(N)=O)NC(=O)[C@H](CCSC)NC(=O)[C@H](CSSC[C@H](NC(=O)[C@H](CCCCN)NC(=O)[C@@H](NC(=O)[C@H](CC(=O)O)NC(=O)[C@@H](NC(=O)[C@@H]4CCCN4C(=O)[C@@H](NC(=O)CN)C(C)C)[C@@H](C)O)C(C)C)C(=O)N[C@@H](CCCNC(=N)N)C(=O)NCC(=O)N[C@@H](CO)C(=O)N4CCC[C@H]4C(=O)N[C@@H](CCC(N)=O)C(=O)N2)NC(=O)[C@H](CCCCN)NC(=O)CNC(=O)[C@H](Cc2ccccc2)NC(=O)[C@H](CCCNC(=N)N)NC(=O)[C@H](CCSC)NC(=O)CNC(=O)[C@H](C)NC(=O)[C@H](CC(=O)O)NC(=O)[C@H](CCCCN)NC(=O)[C@H](CSSC[C@@H](C(=O)N[C@H](C(=O)N2CCC[C@H]2C(=O)N[C@@H](CCCCN)C(=O)O)[C@@H](C)O)NC(=O)[C@H](Cc2c[nH]cn2)NC3=O)NC(=O)[C@@H]2CCCN2C(=O)[C@H](CCC(N)=O)NC1=O [OdK2],,,,,,potent blockers of Kv1.3,,,,
cyclosporine A,,,fully efficacious,,,,reduced the proliferative response to its basal level,~100,fully inhibits T cell activation in all stimulation conditions,complete inhibition
